Source: paper PMC8848500 (Bioorganic & medicinal chemistry, 2020)

biological target: T1, human neutrophil elastase (HNE) (Homo sapiens, UniProt P08246); assay: HNE inhibition assay; type: biochemical; conditions: not given
T1 sequence (P08246 30-267): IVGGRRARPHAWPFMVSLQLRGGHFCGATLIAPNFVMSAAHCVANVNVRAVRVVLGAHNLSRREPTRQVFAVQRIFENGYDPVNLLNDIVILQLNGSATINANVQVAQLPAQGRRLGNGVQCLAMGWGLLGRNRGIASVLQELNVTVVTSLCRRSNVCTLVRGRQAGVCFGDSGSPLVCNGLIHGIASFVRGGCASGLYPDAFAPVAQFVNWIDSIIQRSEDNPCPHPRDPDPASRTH

Row | Compound | IC50 [µM] | HNE inhibitory activity (in words)
1 | N#Cc1nn(Cc2ccccc2)c2ncccc12 [Compound 2c, 1-Benzyl-1H-pyrazolo[3,4-b]pyridine-3-carbonitrile] | > 50 | complete loss of HNE inhibitory activity
2 | N#Cc1nn(C(=O)c2ccccc2)c2ncccc12 [Compound 2d, 1-Benzoyl-1H-pyrazolo[3,4-b]pyridine-3-carbonitrile] | 0.14 | 
3 | N#Cc1nn(C(=O)C2CCCCC2)c2ncccc12 [Compound 2i, 1-(Cyclohexanecarbonyl)-1H-pyrazolo[3,4-b]pyridine-3-carbonitrile] |  | loss of activity
4 | O=C(Nc1nn(C(=O)C2CC2)c2ncccc12)C1CC1 [Compound 7, N-(1-(Cyclopropanecarbonyl)-1H-pyrazolo[3,4-b]pyridin-3-yl)cyclopropanecarboxamide] | 1.5 ± 0.14 | 
5 | CC(=O)n1nc(NC(=O)c2cccc(C)c2)c2cccnc21 [Compound 9, N-(1-Acetyl-1H-pyrazolo[3,4-b]pyridin-3-yl)-3-methylbenzamide] | 25.2 ± 1.3 | 
6 | Cc1cccc(C(=O)n2cc(C#N)c3ccncc32)c1 [Compound 13e, 1-(3-Methylbenzoyl)-1H-pyrrolo[2,3-c]pyridine-3-carbonitrile] |  | reduced activity compared to the reference compounds B and C
7 | N#Cc1cn(C(=O)C2CC2)c2cnccc12 [Compound 13f, 1-(Cyclopropanecarbonyl)-1H-pyrrolo[2,3-c]pyridine-3-carbonitrile] |  | reduced activity compared to the reference compounds B and C
8 | O=C(C1CC1)n1ccc2nccnc21 [Compound 15b, Cyclopropyl(5H-pyrrolo[2,3-b]pyrazin-5-yl)methanone] |  | reduced activity by two orders of magnitude

The next lines start with results.

Row | IC50 [µM] | Compound | HNE inhibitory activity (in words)
9 | > 50 | COc1cccc(NC(=O)c2cnc3cc(C)nn3c2C)c1 [Compound 22a, N-(3-Methoxyphenyl)-2,7-dimethylpyrazolo[1,5-a]pyrimidine-6-carboxamide] | 
10 | > 50 | COc1cccc(NC(=O)c2cnc3cc(C(C)(C)C)nn3c2C)c1 [Compound 22b, 2-(tert-Butyl)-N-(3-methoxyphenyl)-7-methylpyrazolo[1,5-a]pyrimidine-6-carboxamide] | 
11 | > 50 | COc1cccc(NC(=O)c2cnc3c(Cl)c(C(C)(C)C)nn3c2C)c1 [Compound 22c, 2-(tert-Butyl)-3-chloro-N-(3-methoxyphenyl)-7-methylpyrazolo[1,5-a]pyrimidine-6-carboxamide] | 
12 | > 50 | COc1cccc(CNC(=O)c2cnc3cc(C)nn3c2C)c1 [Compound 22d, N-(3-Methoxybenzyl)-2,7-dimethylpyrazolo[1,5-a]pyrimidine-6-carboxamide] | 
13 | > 50 | COc1cccc(CNC(=O)c2cnc3cc(C(C)(C)C)nn3c2C)c1 [Compound 22e, 2-(tert-Butyl)-N-(3-methoxybenzyl)-7-methylpyrazolo[1,5-a]pyrimidine-6-carboxamide] | 
14 | > 50 | COc1cccc(CNC(=O)c2cnc3c(Cl)c(C(C)(C)C)nn3c2C)c1 [Compound 22f, 2-(tert-Butyl)-3-chloro-N-(3-methoxybenzyl)-7-methylpyrazolo[1,5-a]pyrimidine-6-carboxamide] | 

same assay, conditions: HNE IC50 versus reference A

Row | Compound | fold less potent than A [fold]
15 | Cc1cccc(C(=O)n2nc(C#N)c3cccnc32)c1 [Compound 2e, 1-(3-Methylbenzoyl)-1H-pyrazolo[3,4-b]pyridine-3-carbonitrile] | 47

tested on: not listed separately; assay: Chemical stability at room temperature; type: physicochemical; conditions: conversion to precursors 14 and 18

Row | chemical stability | Compound
16 | not chemically stable | Cc1cccc(C(=O)n2ccc3nccnc32)c1 [Compound 15a, (5H-Pyrrolo[2,3-b]pyrazin-5-yl)(m-tolyl)methanone]
17 | not chemically stable | Cc1cccc(C(=O)n2cc(C#N)c3nccnc32)c1 [Compound 19a, 5-(3-Methylbenzoyl)-5H-pyrrolo[2,3-b]pyrazine-7-carbonitrile]
